Assays:
RXRα [1] = biological target: T1, RXRα (Homo sapiens, UniProt P19793); assay: ligand binding assay, RXRα; conditions: read-out: RXR Bind Ki α
T1 construct: expressed in transfected cells
T1 sequence (P19793 1-462): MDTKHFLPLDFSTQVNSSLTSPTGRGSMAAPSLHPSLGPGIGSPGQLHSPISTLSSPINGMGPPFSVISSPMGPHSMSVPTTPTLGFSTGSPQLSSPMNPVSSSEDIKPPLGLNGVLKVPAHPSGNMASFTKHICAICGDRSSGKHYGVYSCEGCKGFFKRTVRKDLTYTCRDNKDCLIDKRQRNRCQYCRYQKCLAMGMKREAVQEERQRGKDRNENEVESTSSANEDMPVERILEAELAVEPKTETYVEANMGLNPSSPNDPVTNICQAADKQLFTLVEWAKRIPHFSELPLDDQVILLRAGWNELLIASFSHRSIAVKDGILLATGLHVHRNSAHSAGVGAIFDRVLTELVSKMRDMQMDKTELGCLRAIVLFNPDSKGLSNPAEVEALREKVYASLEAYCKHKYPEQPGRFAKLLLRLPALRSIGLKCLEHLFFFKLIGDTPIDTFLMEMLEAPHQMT
Excerpt: (§1) A holoreceptor transactivation assay and a ligand binding assay which measure the antagonist/agonist like activity of the compounds of the invention, or their ability to bind to the several retinoid receptor subtypes, respectively, are described in published PCT Application No. WO WO093/11755 (particularly on pages 30-33 and 37-41) published on Jun. 24, 1993, the specification of which is also incorporated herein by reference. A detailed experimental procedure for holoreceptor transactivations has been described by Heyman et al. Cell 68, 397-406, (1992); Allegretto et al. J. Biol. Chem. 268, 26625-26633, and Mangelsdorf et al. The Retinoids: Biology, Chemistry and Medicine, pp 319-349, Raven Press Ltd., New York, which are expressly incorporated herein by reference. The results obtained in this assay are expressed in EC50 numbers, as they are also in the chimeric receptor transactivation assay. The results of the ligand binding assay are expressed in Ki numbers. (See Cheng et al Biochemical Pharmacology Vol. 22 pp 3099-3108, expressly incorporated herein by reference.)

RXRβ [2] = biological target: T2, RXRβ (Homo sapiens, UniProt P28702); assay: holoreceptor transactivation assay, RXRβ; type: cell-based; conditions: for EC50: holoreceptor assay, read-out: RXR Trans. EC50 β; for RXR Trans. efficacy β (in parentheses): percentage compared to the standard compound
T2 construct: expressed in transfected cells
T2 sequence (P28702 1-533): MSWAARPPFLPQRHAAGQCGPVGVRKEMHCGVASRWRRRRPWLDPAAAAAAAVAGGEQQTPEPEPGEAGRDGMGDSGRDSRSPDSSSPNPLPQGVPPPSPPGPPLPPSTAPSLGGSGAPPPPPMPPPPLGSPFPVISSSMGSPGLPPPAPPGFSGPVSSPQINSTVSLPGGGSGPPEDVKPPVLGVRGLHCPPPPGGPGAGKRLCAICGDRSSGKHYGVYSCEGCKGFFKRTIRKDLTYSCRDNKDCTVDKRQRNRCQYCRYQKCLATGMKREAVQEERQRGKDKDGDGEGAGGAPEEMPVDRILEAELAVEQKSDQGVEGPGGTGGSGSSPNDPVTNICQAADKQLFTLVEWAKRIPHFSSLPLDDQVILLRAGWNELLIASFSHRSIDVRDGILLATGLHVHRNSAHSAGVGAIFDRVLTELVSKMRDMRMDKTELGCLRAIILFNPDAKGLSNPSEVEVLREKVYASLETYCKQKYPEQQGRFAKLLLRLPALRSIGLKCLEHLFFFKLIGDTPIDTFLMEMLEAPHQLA
Excerpt: as §1
(§2) This standard compound is described in U.S. Pat. No. 6,114,533.
(§3) Table 1 discloses the activity of certain exemplary compounds of the invention in the above-described receptor transactivation and binding assays. Particularly, the transactivation data pertaining to activation of the RAR receptors were obtained in the chimeric assay, and the transactivation data pertaining to the activation of RXR receptors were obtained in the holoreceptor assay.

RXRβ [3] = biological target: T2, RXRβ; assay: ligand binding assay, RXRβ; conditions: read-out: RXR Bind Ki β
Excerpt: as §1

RXRα [4] = biological target: T1, RXRα; assay: holoreceptor transactivation assay, RXRα; type: cell-based; conditions: for EC50: holoreceptor assay, read-out: RXR Trans. EC50 α; for RXR Trans. efficacy α (in parentheses): percentage compared to the standard compound
Excerpt: as §1, §2, §3

RARγ = biological target: T3, RARγ (Homo sapiens, UniProt P13631); assay: ligand binding assay, RARγ; conditions: read-out: RAR Bind. Ki γ
T3 sequence (P13631 1-454): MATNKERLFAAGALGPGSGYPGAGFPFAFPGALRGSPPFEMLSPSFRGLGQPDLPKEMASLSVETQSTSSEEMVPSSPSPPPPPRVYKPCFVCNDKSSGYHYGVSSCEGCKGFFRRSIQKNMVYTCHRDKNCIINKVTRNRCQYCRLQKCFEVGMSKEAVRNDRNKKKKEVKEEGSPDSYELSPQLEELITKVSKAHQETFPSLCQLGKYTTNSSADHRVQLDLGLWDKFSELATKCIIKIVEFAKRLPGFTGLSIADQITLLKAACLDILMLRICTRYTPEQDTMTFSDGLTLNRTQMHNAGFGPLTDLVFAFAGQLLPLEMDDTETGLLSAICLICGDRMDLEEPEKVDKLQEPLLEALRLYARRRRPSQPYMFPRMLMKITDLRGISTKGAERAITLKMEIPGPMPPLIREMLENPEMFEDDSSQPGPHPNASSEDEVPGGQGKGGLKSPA
Excerpt: as §1

RARβ = biological target: T4, RARβ (Homo sapiens, UniProt P10826); assay: ligand binding assay, RARβ; conditions: read-out: RAR Bind. Ki β
T4 sequence (P10826 1-455): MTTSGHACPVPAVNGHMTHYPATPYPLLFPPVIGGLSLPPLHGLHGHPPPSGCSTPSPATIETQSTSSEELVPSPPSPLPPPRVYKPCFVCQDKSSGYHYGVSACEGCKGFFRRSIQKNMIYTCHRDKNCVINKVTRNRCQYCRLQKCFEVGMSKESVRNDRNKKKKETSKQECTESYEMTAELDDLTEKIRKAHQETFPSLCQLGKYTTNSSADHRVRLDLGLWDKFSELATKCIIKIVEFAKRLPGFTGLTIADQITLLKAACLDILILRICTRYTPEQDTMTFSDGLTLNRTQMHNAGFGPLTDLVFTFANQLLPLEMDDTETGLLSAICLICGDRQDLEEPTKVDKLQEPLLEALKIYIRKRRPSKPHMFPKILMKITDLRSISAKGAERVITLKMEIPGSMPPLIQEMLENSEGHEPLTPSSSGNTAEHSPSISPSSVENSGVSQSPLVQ
Excerpt: as §1

[5] = tested on: female diabetic db/db mice; assay: serum glucose, triglyceride and thyroxine levels in db/db mice; conditions: for Glucosc Day 0 / Triglycerides Day 0: Day 0 (pre-treatment)
Protocol: An assay described below tests the effect of compounds of the invention on serum glucose, tryglyceride and thyroxine levels in female 9-10 weeks old db/db mice.
Female diabetic db/db (9-10 weeks old) mice were maintained on standard laboratory food and treated by oral gavage with vehicle (corn oil), standard compound (2E,4E,1′S,2′S)-3-methyl-5-[2′-methyl-2′-(5,5,8,8-tetramethyl-5,6,7,8-tetrahydro-naphthalen-2-yl)-cyclopropyl]-penta-2,4-dienoic acid (5 mg/kg) or the test compound (5-100 mg/kg, as described in Table 2) daily for seven days at 8:00 AM. Blood samples (70 μl) were taken by orbital bleeding at 11:00 AM on day 0 (pre-treatment), day 3, and day 6. On day 7, a blood sample (700 μl) was taken at 11:00 AM and the animals were sacrificed. Glucose, triglyceride and thyroxine (T4) levels were determined on a Boehringer Manheim Hatachi Clinical Chemistry Analyzer using standard protocols provided by the manufacturer and reagents that were supplied in commercially available kits (glucose and T4: Boehringer Manheim; triglycerides: Roche Diagnostics). A NUMBER OF animals were treated in each group.

RARα = biological target: T5, RARα (Homo sapiens, UniProt P10276); assay: ligand binding assay, RARα; conditions: read-out: RAR Bind. Ki α
T5 sequence (P10276 1-462): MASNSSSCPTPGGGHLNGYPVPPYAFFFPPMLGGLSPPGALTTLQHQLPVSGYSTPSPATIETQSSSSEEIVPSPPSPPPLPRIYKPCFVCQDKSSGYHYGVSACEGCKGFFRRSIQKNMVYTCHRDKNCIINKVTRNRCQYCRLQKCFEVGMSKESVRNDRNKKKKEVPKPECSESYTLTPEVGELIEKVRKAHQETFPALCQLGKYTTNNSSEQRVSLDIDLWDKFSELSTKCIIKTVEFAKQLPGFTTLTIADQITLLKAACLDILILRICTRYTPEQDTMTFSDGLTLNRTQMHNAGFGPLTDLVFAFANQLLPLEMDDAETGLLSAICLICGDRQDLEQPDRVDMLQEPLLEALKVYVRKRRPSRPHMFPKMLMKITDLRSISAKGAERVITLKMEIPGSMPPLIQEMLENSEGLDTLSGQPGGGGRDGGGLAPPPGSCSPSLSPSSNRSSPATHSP
Excerpt: as §1

RXRγ [6] = biological target: T6, RXRγ (Homo sapiens, UniProt P48443); assay: holoreceptor transactivation assay, RXRγ; type: cell-based; conditions: for EC50: holoreceptor assay, read-out: RXR Trans. EC50 γ; for RXR Trans. efficacy γ (in parentheses): percentage compared to the standard compound
T6 construct: expressed in transfected cells
T6 sequence (P48443 1-463): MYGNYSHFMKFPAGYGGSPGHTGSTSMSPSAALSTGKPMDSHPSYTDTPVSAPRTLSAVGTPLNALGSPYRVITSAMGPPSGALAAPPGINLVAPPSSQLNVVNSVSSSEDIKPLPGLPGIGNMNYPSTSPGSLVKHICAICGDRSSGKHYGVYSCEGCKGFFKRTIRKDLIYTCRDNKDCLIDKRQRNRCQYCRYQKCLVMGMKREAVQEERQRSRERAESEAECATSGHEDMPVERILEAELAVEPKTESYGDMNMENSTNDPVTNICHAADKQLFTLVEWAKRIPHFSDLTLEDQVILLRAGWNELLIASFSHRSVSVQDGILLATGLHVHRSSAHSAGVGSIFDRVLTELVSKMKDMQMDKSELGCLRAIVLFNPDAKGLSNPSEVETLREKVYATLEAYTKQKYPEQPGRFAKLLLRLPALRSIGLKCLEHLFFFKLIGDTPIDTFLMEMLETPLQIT
Excerpt: as §1, §2, §3

RXRγ [7] = biological target: T6, RXRγ; assay: ligand binding assay, RXRγ; conditions: read-out: RXR Bind Ki γ
Excerpt: as §1

Row | Ki (RXRα [1]) | EC50 (RXRβ [2]) | RXR Trans. efficacy β (in parentheses) (RXRβ [2]) | Ki (RXRβ [3]) | EC50 (RXRα [4]) | RXR Trans. efficacy α (in parentheses) (RXRα [4]) | Ki (RARγ) | Ki (RARβ) | Ki (RARα) | EC50 (RXRγ [6]) | RXR Trans. efficacy γ (in parentheses) (RXRγ [6]) | Structure (SMILES) | other results
1 | 1 nM | 6 nM | 27% | 15 nM | 2 nM | 32% | 1400 nM | 450 nM | 480 nM | 2 nM | 10% | CCCN1CCC(C)(C)c2cc(C(C)C)cc(\C(C)=C(F)/C=C/C(C)=C/C(=O)O)c21 [Compound 29, (2E,4E,6E)-6-Fluoro-7-(6-isopropyl-4,4-dimethyl-1-propyl-1,2,3,4-tetrahydro-quinolin-8-yl)-3-methyl-octa-2,4,6-trienoic acid] | Glucosc Day 0 ([5]; 50 mg/kg oral gavage daily): 523 ± 84 mg/dL; Triglycerides Day 0 ([5]; 50 mg/kg oral gavage daily): 316 ± 339 mg/dL; Glucosc Day 3, 3h ([5]; 50 mg/kg oral gavage daily): 476 ± 96 mg/dL; Triglycerides Day 3, 3h ([5]; 50 mg/kg oral gavage daily): 326 ± 111 mg/dL; Glucosc Day 6, 3h ([5]; 50 mg/kg oral gavage daily): 441 ± 184 mg/dL
2 | 2 nM | 0.4 nM | 66% | 21 nM | 0.3 nM | 86% | 2000 nM | 430 nM | 705 nM | 0.3 nM | 75% | CC/C(=C(F)/C=C/C(C)=C/C(=O)O)c1cc(C(C)C)cc2c1N(CC)CCC2(C)C [Compound 28, (2E,4E,6E)-7-(1-Ethyl-6-isopropyl-4,4-dimethyl-1,2,3,4-tetrahydro-quinolin-8-yl)-6-fluoro-3-methyl-nona-2,4,6-trienoic acid] | Ki (RXRγ [7]): 21 nM
3 | 1 nM | 0.5 nM | 77% | 11 nM | 0.1 nM | 74% | 2500 nM | 840 nM | 680 nM | 0.1 nM | 75% | CCN1CCC(C)(C)c2cc(C(C)C)cc(\C(C)=C(F)/C=C/C(C)=C/C(=O)O)c21 [Compound 27, (2E,4E,6E)-7-(1-Ethyl-6-isopropyl-4,4-dimethyl-1,2,3,4-tetrahydro-quinolin-8-yl)-6-fluoro-3-methyl-octa-2,4,6-trienoic acid] | 
4 |  |  |  |  |  |  |  |  |  |  |  | CC(/C=C/[C@@H]1C[C@]1(C)c1ccc2c(c1)C(C)(C)CCC2(C)C)=C\C(=O)O [Standard compound, (2E,4E,1′S,2′S)-3-methyl-5-[2′-methyl-2′-(5,5,8,8-tetramethyl-5,6,7,8-tetrahydro-naphthalen-2-yl)-cyclopropyl]-penta-2,4-dienoic acid] | Glucosc Day 0 ([5]; 4 mg/kg oral gavage daily): 524 ± 45 mg/dL; Triglycerides Day 0 ([5]; 4 mg/kg oral gavage daily): 273 ± 66 mg/dL; Glucosc Day 3, 3h ([5]; 4 mg/kg oral gavage daily): 512 ± 156 mg/dL; Triglycerides Day 3, 3h ([5]; 4 mg/kg oral gavage daily): 755 ± 464 mg/dL; Glucosc Day 6, 3h ([5]; 4 mg/kg oral gavage daily): 459 ± 148 mg/dL; T4 Day 7 ([5]; 4 mg/kg oral gavage daily, Day 7): 1.4 ± 0.5 µg/dL
